What all share (format): functional
The test system of test [1] is Staphylococcus aureus. Nature of the test: Antibacterial activity against methicillin-resistant Staphylococcus aureus clinical isolates by CLSi method.
The subject of test [2] is Staphylococcus aureus. Nature of the test: Antibacterial activity against methicillin-resistant Staphylococcus aureus clinical isolates assessed as susceptible isolates by CLSI method.
Test [3] deals with Staphylococcus aureus. The test is described as follows: Antibacterial activity against methicillin-resistant Staphylococcus aureus clinical isolates assessed as resistant isolates by CLSI method.
For test [4], the system named is Staphylococcus aureus. Nature of the test: Antibacterial activity against methicillin-resistant Staphylococcus aureus clinical isolates assessed as susceptible isolates by EUCAST method.
Test [5] deals with Staphylococcus aureus. The test is described as follows: Antibacterial activity against methicillin-resistant Staphylococcus aureus clinical isolates assessed as resistant isolates by EUCAST method.
In test [6] the test system is Staphylococcus aureus. The test is described as follows: Antibacterial activity against methicillin-susceptible Staphylococcus aureus clinical isolates by CLSi method.
Test [7] has as its system Staphylococcus aureus. Nature of the test: Antibacterial activity against methicillin-susceptible Staphylococcus aureus clinical isolates assessed as susceptible isolates by CLSI method.
For test [8], the system named is Staphylococcus aureus. The test is described as follows: Antibacterial activity against methicillin-susceptible Staphylococcus aureus clinical isolates assessed as resistant isolates by CLSI method.
In test [9] the test system is Staphylococcus aureus. Nature of the test: Antibacterial activity against methicillin-susceptible Staphylococcus aureus clinical isolates assessed as susceptible isolates by EUCAST method.
For test [10], the system named is Staphylococcus aureus. Nature of the test: Antibacterial activity against methicillin-susceptible Staphylococcus aureus clinical isolates assessed as resistant isolates by EUCAST method.
Test [11] has as its system Staphylococcus aureus. Nature of the test: Antibacterial activity against methicillin-resistant Staphylococcus aureus clinical isolates assessed as susceptibility breakpoint.

9 compounds from ChEMBL document CHEMBL1255493, “In vitro activity of telavancin against a contemporary worldwide collection of Staphylococcus aureus isolates” (2010) can be followed below.

≈ marks a conversion by molar mass, not a printed value. Calls of active or inactive are those of the source. The calls are words filed in the database; no cut-off is given here.

On to `CCCCCCCCCC(=O)N[C@@H](Cc1c[nH]c2ccccc12)C(=O)N[C@H](CC(N)=O)C(=O)N[C@@H](CC(=O)O)C(=O)N[C@@H]1C(=O)NCC(=O)N[C@@H](CCCN)C(=O)N[C@@H](CC(=O)O)C(=O)N[C@H](C)C(=O)N[C@@H](CC(=O)O)C(=O)NCC(=O)N[C@H](CO)C(=O)N[C@@H]([C@H](C)CC(=O)O)C(=O)N[C@@H](CC(=O)c2ccccc2N)C(=O)O[C@@H]1C`, for which the MIC50 against Staphylococcus aureus [1] and against Staphylococcus aureus [6] was 0.25 mg/L (≈ 0.154 µM) each time. Moreover, the MIC90 in the test with Staphylococcus aureus [1] and against Staphylococcus aureus [6] was 0.5 mg/L (≈ 0.309 µM) throughout. Also, the Activity in the test on Staphylococcus aureus [2] worked out at 99.9%; in the test on Staphylococcus aureus [4] it was 99.9%; in the test with Staphylococcus aureus [5], 0.1%; with Staphylococcus aureus [7], 100%; in the test on Staphylococcus aureus [9], 100%; with Staphylococcus aureus [10], 0%. Besides, the outcome in the test on Staphylococcus aureus [3] and with Staphylococcus aureus [8] was inactive.
In the case of `CCC[C@@H]1C[C@@H](C(=O)N[C@@H]([C@H]2O[C@H](SC)[C@H](O)[C@@H](O)[C@H]2O)[C@H](C)Cl)N(C)C1` [CLINDAMYCIN], the MIC90 against Staphylococcus aureus [1] was > 2 mg/L; in the test with Staphylococcus aureus [6] it was ≤ 0.25 mg/L. For the same compound, the Activity in the test with Staphylococcus aureus [2] is listed as 54.7%; in the test on Staphylococcus aureus [3] it was 45%; with Staphylococcus aureus [4], 54.3%; in the test with Staphylococcus aureus [5] it was 45.3%; with Staphylococcus aureus [7] it was 95%; with Staphylococcus aureus [8], 4.9%. The Activity with Staphylococcus aureus [9] is 94.6%; in the test with Staphylococcus aureus [10] it was 5%. For the same compound, in the test with Staphylococcus aureus [6], the MIC50 was ≤ 0.25 mg/L.
As for `CC[C@H]1OC(=O)[C@H](C)[C@@H](O[C@H]2C[C@@](C)(OC)[C@@H](O)[C@H](C)O2)[C@H](C)[C@@H](O[C@@H]2O[C@H](C)C[C@H](N(C)C)[C@H]2O)[C@](C)(O)C[C@@H](C)C(=O)[C@H](C)[C@@H](O)[C@]1(C)O` [ERYTHROMYCIN], the values for the MIC50 in the test on Staphylococcus aureus [1] and in the test with Staphylococcus aureus [6] were > 4 mg/L and ≤ 0.25 mg/L, respectively. The Activity in the test on Staphylococcus aureus [2] is on record as 13.9%; in the test with Staphylococcus aureus [3], 85.6%; in the test with Staphylococcus aureus [4] it was 14.2%; with Staphylococcus aureus [5], 85.6%; in the test with Staphylococcus aureus [7], 74.3%; with Staphylococcus aureus [8], 25.2%. In addition, the Activity with Staphylococcus aureus [9] worked out at 74.5%; with Staphylococcus aureus [10] it was 25.2%. In addition, the MIC90 against Staphylococcus aureus [6] was > 4 mg/L.
As to `C[C@H]1COc2c(N3CCN(C)CC3)c(F)cc3c(=O)c(C(=O)O)cn1c23.C[C@H]1COc2c(N3CCN(C)CC3)c(F)cc3c(=O)c(C(=O)O)cn1c23.O` [LEVOFLOXACIN], the MIC50 with Staphylococcus aureus [1] is > 4 mg/L; against Staphylococcus aureus [6], ≤ 0.5 mg/L. For the same compound, the figures for the MIC90 with Staphylococcus aureus [1] and against Staphylococcus aureus [6] were > 4 mg/L and ≤ 0.5 mg/L, respectively. Also, the Activity with Staphylococcus aureus [2] came to 21.6%; in the test with Staphylococcus aureus [3], 77.9%; in the test with Staphylococcus aureus [4], 21.6%; in the test on Staphylococcus aureus [5], 77.9%; in the test with Staphylococcus aureus [7], 92.9%; in the test with Staphylococcus aureus [8] it was 6.8%. In addition, the Activity is given as 92.9% in the test on Staphylococcus aureus [9] and 6.8% in the test with Staphylococcus aureus [10].
For `CC(=O)NC[C@H]1CN(c2ccc(N3CCOCC3)c(F)c2)C(=O)O1` [LINEZOLID], the MIC50 came out at 1 mg/L (≈ 2.96 µM) against Staphylococcus aureus [1] and 2 mg/L (≈ 5.93 µM) in the test on Staphylococcus aureus [6]. In addition, the MIC90 against Staphylococcus aureus [1] and in the test on Staphylococcus aureus [6] was 2 mg/L (≈ 5.93 µM) throughout. The result in the test on Staphylococcus aureus [3] and with Staphylococcus aureus [8] was inactive. Besides, the Activity with Staphylococcus aureus [5] was <0.1%; with Staphylococcus aureus [7] it was 100%; with Staphylococcus aureus [9], 100%; in the test on Staphylococcus aureus [10], 0%.
For `CCCCCCCCCCNCCN[C@@]1(C)C[C@H](O[C@H]2[C@H](Oc3c4cc5cc3Oc3ccc(cc3Cl)[C@@H](O)[C@@H](NC(=O)[C@@H](CC(C)C)NC)C(=O)N[C@@H](CC(N)=O)C(=O)N[C@H]5C(=O)N[C@H]3C(=O)N[C@H](C(=O)N[C@H](C(=O)O)c5cc(O)c(CNCP(=O)(O)O)c(O)c5-c5cc3ccc5O)[C@H](O)c3ccc(c(Cl)c3)O4)O[C@H](CO)[C@@H](O)[C@@H]2O)O[C@@H](C)[C@H]1O` [TELAVANCIN], the MIC50 against Staphylococcus aureus [1] and with Staphylococcus aureus [6] was 0.12 mg/L (≈ 0.0684 µM) in each case. For the same compound, the MIC90 in the test on Staphylococcus aureus [1] and against Staphylococcus aureus [6] was 0.25 mg/L (≈ 0.142 µM) in each case. Also, the outcome in the test on Staphylococcus aureus [3], in the test with Staphylococcus aureus [5], in the test on Staphylococcus aureus [8] and with Staphylococcus aureus [10] was inactive. The Activity result in the test on Staphylococcus aureus [11] was “<=1 ug ml-1”; in the test with Staphylococcus aureus [7], 100%; in the test on Staphylococcus aureus [9], 100%.
Take `CN(C)[C@@H]1C(O)=C(C(N)=O)C(=O)[C@@]2(O)C(O)=C3C(=O)c4c(O)cccc4[C@@](C)(O)[C@H]3C[C@@H]12` [TETRACYCLINE]: the Activity with Staphylococcus aureus [2] is recorded as 80.7%; with Staphylococcus aureus [3], 19.1%; with Staphylococcus aureus [4], 80.1%; in the test with Staphylococcus aureus [5], 19.9%; with Staphylococcus aureus [7], 94.6%; in the test on Staphylococcus aureus [8], 5%. Further, the Activity with Staphylococcus aureus [9] is reported as 94.2%; with Staphylococcus aureus [10], 5.8%. For the same compound, the MIC50 against Staphylococcus aureus [6] is ≤ 1 mg/L. Further, in the test with Staphylococcus aureus [6], the MIC90 was ≤ 1 mg/L.
For the compound `CN[C@H](CC(C)C)C(=O)N[C@H]1C(=O)N[C@@H](CC(N)=O)C(=O)N[C@H]2C(=O)N[C@H]3C(=O)N[C@H](C(=O)N[C@H](C(=O)O)c4cc(O)cc(O)c4-c4cc3ccc4O)[C@H](O)c3ccc(c(Cl)c3)Oc3cc2cc(c3O[C@@H]2O[C@H](CO)[C@@H](O)[C@H](O)[C@H]2O[C@H]2C[C@](C)(N)[C@H](O)[C@H](C)O2)Oc2ccc(cc2Cl)[C@H]1O` [VANCOMYCIN], the MIC50 in the test on Staphylococcus aureus [1] and against Staphylococcus aureus [6] was 1 mg/L (≈ 0.69 µM) in each case. The MIC90 against Staphylococcus aureus [1] and in the test on Staphylococcus aureus [6] was 1 mg/L (≈ 0.69 µM) throughout. Moreover, the Activity with Staphylococcus aureus [2] is listed as 99.9%; in the test with Staphylococcus aureus [3] it was 0%; with Staphylococcus aureus [4], 99.9%; with Staphylococcus aureus [5], 0.1%; with Staphylococcus aureus [7], 100%; in the test with Staphylococcus aureus [8], 0%. Besides, the results for the Activity in the test on Staphylococcus aureus [9] and with Staphylococcus aureus [10] were 100% and 0%, respectively.
With GENTAMICIN, the MIC50 against Staphylococcus aureus [1] and against Staphylococcus aureus [6] was < 1 mg/L throughout. Also, the MIC90 is > 8 mg/L with Staphylococcus aureus [1] and < 1 mg/L in the test with Staphylococcus aureus [6]. For the same compound, the Activity is 77.9% in the test on Staphylococcus aureus [2]; 21.1% in the test on Staphylococcus aureus [3]; 77.1% with Staphylococcus aureus [4]; 22.9% in the test on Staphylococcus aureus [5]; 96.6% in the test with Staphylococcus aureus [7]; 3.1% in the test with Staphylococcus aureus [8]. For the same compound, the Activity in the test with Staphylococcus aureus [9] came out at 96.4%; in the test with Staphylococcus aureus [10], 3.6%.
